US20250136932A1, “COMPOSITIONS AND METHODS FOR CULTURING AND MAINTAINING TROPHOBLAST STEM CELLS” (NORTH CAROLINA STATE UNIVERSITY, priority 2022, published 2025)

Columns and labels:
[1] = test system: CDX2+ hTSCs from CTBs from term placentas; test: Derivation and support of CDX2+ hTSCs from term placental CTBs; format: cell-based, human; settings: component added to or exchanged in TSCM
Description: Differentiation of term CTBs to hTSCs. Term CTBs that were previously frozen were thawed directly into DTM7 medium, or TSCMUA medium (see, e.g., Table 1). To assess DTME medium, cells cultured in TSCMUA were passaged into DTME.
Culture of hTSCs. hTSCs were cultured in 2 ml of DTM7 at 37 C in 5% CO2. Culture medium was replaced every 2 days. When hTSCs reached 70-90% confluence, they were dissociated with TrypLE at 37° C. for 5-10 minutes and passaged to a new 6-well plate pre-coated with 3 μg/ml of vitronectin and 1 μg/ml of Laminin 521 at a 1:3-1:4 split ratio and were supplemented with Y-27632 upon passage to aid in single cell attachment. Cells were routinely passaged approximately every 4-6 days. hTSCs at passages 2+ (typically passage 5+) were used for analysis.
hTSC cell culture. hTSCs were cultured as previously described by Okae et al. with minor modifications. Additionally, similar protocols were used for the TSCMUA, DMT7, and DTME media described further herein. […]

CTB21126R+ term hTSCs = test: Immunofluorescence marker expression in term CTB-derived hTSCs; format: cell-based, human; settings: term hTSCs switched from TSCM+UK5099+AlbuMAX to TSCM
Description: Immunofluorescence analysis. For immunofluorescence analysis, cells were grown on glass-bottom culture dishes coated with 3 μg/ml vitronectin and 1 μg/ml of Laminin 521. Cells were fixed either using 4% paraformaldehyde in PBS for 10 min, permeabilized with 0.5% Triton X-100 for 5 min and blocked in 3% BSA/PBS with 0.1% human IgG and 0.3% Triton X-100 for 1 hr. Cells were then incubated overnight with the primary antibody diluted in blocking buffer. The following primary antibodies were used: anti-KRT7 (SCB, 1:50), anti-KRT7 (CST, 1:500), rabbit anti-hCG (1:100), mouse anti-hCG (1:100), anti-YAP (1:200), anti-TFAP2C (1:400), anti-P63 (1:600), anti-GATA3 (1:500), anti-TEAD4 (1:250), anti-CDX2 (1:300), anti-VE-Cadherin (1:400), anti-HLA-G (1:300), anti-syncytin (1:50). Corresponding isotype controls (rabbit polyclonal IgG, rabbit XP IgG, mouse IgG1, and mouse IgG2a) were used at primary antibody concentrations. Alexa Fluor 488- or Alexa Fluor 647-conjugated secondary antibodies were used as secondary antibodies. Nuclei were stained with DAPI and all samples were imaged using a Zeiss LSM 710 or 880 laser scanning confocal microscope (Carl Zeiss, Germany).
Immunostaining. For immunofluorescence analysis, 3×10^4 cells were grown on 24-well glass bottom plates coated with 3 μg/ml of vitronectin and 1 μg/ml of Laminin 521. […]

**Q.** For lysophosphatidic acid [LPA], which “Role of component in hTSC derivation from term CTB” value [1] is on record?
**A.** The value was “cannot replace AlbuMAX”.

**Q.** How did the “Role of component in hTSC derivation from term CTB” value [1] turn out when `N#CC(=Cc1cn(-c2ccccc2)c2ccccc12)C(=O)O` [UK5099, α-cyano-β-(1-phenylindol-3-yl)-acrylate] was run?
**A.** Its value is “necessary”.

**Q.** What about the “Role of component in CDX2 expression” value (CTB21126R+ term hTSCs) of the same compound?
**A.** The value was “important for CDX2 expression”.
